What was measured:
[1] = system: B16, MH3924A, Hela, MCF-7, A498 and mouse fibroblasts (3T3 NIH); assay: Intracellular uptake, cell panel of FIG. 7A (ICP-MS); assay type: cell-based; conditions: 1-h incubation, 10-100 μM, samples of 3×10^6 cells (FIG. 7A)
Method: (§1) Cell Uptake Studies. A493 (human kidney), B16 melanoma cells (mouse), HeLa (human cervix), MCF-7 (human breats), MH3924A (Morris hepatoma) cells (rat) and 3T3 NIH (mouse fibroblasts) were obtained from the DKFZ tumor cell collection. 3×10^6 cells of each cell type were grown for 24 hours in culture flasks. Afterwards they were incubated for 1 hour in 10 mL culture media containing 0, 10, 50 and 100 μM of Gd-2.2. Gd-3.2 or Gd-4.2. Afterwards the medium was removed, the cells were trypsinated, washed twice, resuspended in culture medium and counted. The gadolinium uptake was determined in triplicate. […] cells were incubated with 0, 1, 2.5, 5 and 10 μM of the Gd-1.2. and Gd-5.2. for 24 h.
(§2) ICP-MS: Equal cell counts were taken and digested with HNO3 under microwave heating (Mars5, CEM). The samples were diluted with water containing Rh-103 as an internal standard. Gd-157 measurements were performed with a high resolution ICP-mass spectrometer (ELEMENT 2, Finnigan MAT). The gadolinium concentrations were determined from standard curves created prior to sample analyses.

[2] = system: subcutaneous MH3924A tumor; assay: MRI of ACI rats bearing a subcutaneous MH3924A tumor; assay type: in vivo, rat; conditions: 1 h post Gd, 0.1 mmol/kg i.v., 2.35 T
Method: (§3) Animal models. For in vivo tumor studies 2×10^6 MH3924A tumor cells were injected subcutaneously into the right thigh of male ACI rats (Charles River, Sulzfeld, Germany) weighing 220 to 260 g. All animal experiments were performed in compliance with the German Animal Protection Laws (Permission 35-9185.81/G-7-03, Reg.-Praesidium, Karlsruhe, Germany).
MRI. At 25 days after inoculation, when tumors had reached a diameter of ca. 10-15 mm, the MR imaging experiments were initiated. ACI rats were anesthetized by intravenous injection of ketamin (Ketanest®, 0.1 mg/g body wt.; Parke-Davis, Berlin, Germany). Then a dose of 0.1 mmol/kg Magnevist® or Gadovist® (Schering, Berlin, Germany) or one of the synthesized agents Gd-3.1., Gd-5.1. or Gd-6.1. was injected intravenously into a lateral tail vein. For one experiment a higher dose (0.36 mmol/kg) of Magnevist® was used. Individual rats were examined by MRI at 1 h and 24 h post Gd, in the case of Magnevist® also at ca. 15 min post Gd. Proton imaging studies were performed at 2.35 T (100.3 MHz) with a Biospec 24/40 instrument (Bruker BioSpin MRI, Ettlingen, Germany). […] Two transaxial multislice imaging protocols were applied with a field of view of 70×70 mm, 128 time-domain data points, 96 phase-encoding steps, and 16 slices of 2 mm thickness. A multi-spin-echo sequence was used for proton-density and T2-weighted images (repetition time TR=2 s, 12 echoes with echo times TE of 8, 16, 24, . . . 96 ms, number of averages=1), and a spoiled gradient-echo sequence was used for T1-weighted imaging (TR=212 ms, TE=5 ms, flip angle=60°, number of averages=3). The data were Fourier transformed to give a 128×128 image matrix with 0.55 mm pixel resolution. Analogous T1-weighted images with coronal slices were acquired with a field of view of 80×80 mm and 3-mm slice thickness.
Imaging viewing, ROI analysis and export of TIFF files was performed with the freeware MRIcro from Chris Rorden (http://people.cas.sc.edu/rorden/mricro.html).

[3] = system: MH3924A Morris hepatoma cells; assay: Intracellular uptake of gadolinium complexes (ICP-MS); assay type: cell-based, rat; conditions: MH3924A
Method: (§4) Cell culture. B16 melanoma cells (mouse) and MH3924A Morris hepatoma cells (rat) were obtained from the German Cancer Research Center (DKFZ) tumor bank and grown at 37° C. as stock cultures in RPMI 1640 supplemented with 10% fetal calf serum and 1% glutamine as standard medium under a 5% CO2 atmosphere (all components: Pan Biotech GmbH, Aidenbach, Germany). For contrast agent uptake studies 10^6 cells were inoculated into 25 cm^2 culture flasks (BD Biosciences, Bedford, USA) and grown for 24 h in 10 mL of the standard culture medium. Cells were then incubated for an additional 24 h (1 h for temperature dependence studies) with fresh medium containing 0, 1, 2.5, 5 or 10 μM of the selected gadolinium complex (three replicate flasks for each incubation). Afterwards the medium was removed, cells were trypsinated, washed twice, resuspended in culture medium and counted (typical yields: 3.5-6 million cells). For comparison 2.5×10^5 human melanocytes (Promo Cell, Heidelberg, Germany) were incubated for 24 h with melanocyte growth medium (Promo Cell, Heidelberg, Germany) containing 0, 1, 2.5, 5 or 10 μM of the selected gadolinium complex (two replicate flasks for each incubation). The work up procedure was as described above typically yielding 2.5×10^5 cells. Cultured human hepatocytes (Cytonet GmbH, Weinheim, Germany) embedded in a collagen matrix in a 12 well microtiter plate, with 6×10^5 viable cells per well were incubated for 24 h in hepatocyte growth medium (Cytonet GmbH, Weinheim, Germany) containing the same concentration series of selected gadolinium complexes. Afterwards the medium was removed, cells were separated using collagenase (Roche Diagnostics, Mannheim, Germany). After digestion the cells were washed twice with PBS, resuspended in culture medium and counted (typical yields: 6×10^5 cells per tube). The intracellular gadolinium content was determined by ICP-MS as described below.
(§5) ICP-MS. Samples containing the above mentioned number of harvested cells were digested with 50% concentrated HNO3 (Superselect; Merck, Darmstadt, Germany) under microwave heating with a Mars 5 apparatus (CEM GmbH, Kamp-Lintfort, Germany). To each sample 100 μL of an aqueous solution of rhodium chloride (1 μg/mL) were added so that Rh-103 could be used as an internal quantification standard. Gd-160 measurements were performed with the ICP-MS instrument mentioned above. The gadolinium concentrations were determined using standard curves created prior to cell analyses. For each uptake incubation condition triplicate cell samples were analyzed, and Gd content for each sample was recorded as the mean of two MS determinations.
(§6) Intracellular Uptake of Gadolinium Complexes. B16 melanoma and MH3924A hepatoma cells as well as human melanocytes and hepatocytes were incubated for 24 h in the presence of the gadolinium complexes shown in FIG. 1, using concentrations in the range of 1-10 μM. Incubations with the unsubstituted [Gd(DTPA)(H2O)]^2−complex (Magnevist®) served as controls. Following cell harvest and hydrolysis, inductively coupled plasma mass spectrometry (ICP-MS) with direct detection of gadolinium was used to quantitate complex uptake (triplicate cultures for each incubation).
as §1, with “h. […]” for “h.”

[4] = system: A498 (human kidney carcinoma); assay: as above; assay type: cell-based; conditions: A498, 1 h incubation, 100 μM
Method: as §1, §2

[5] = system: HeLa (human cervix carcinoma cells); assay: as above; assay type: cell-based; conditions: 1 h incubation, 100 μM
Method: as §1, §2

[6] = system: MCF-7 (human breast cancer); assay: as above; assay type: cell-based; conditions: MCF-7, 1 h incubation, 100 μM
Method: as §1, §2

B16 melanoma cells = assay: as above; assay type: cell-based, mouse; conditions: B16 melanoma cells, 1 h incubation, 100 μM
Method: as §4, §5, §6
as §1, with “h. […]” for “h.”

Complex stability = assay type: physicochemical; conditions: method of Sherry et al.
Method: Complex stability. The stability constants were determined using a method of Sherry et al. (39).

human serum albumin = target: T1, human serum albumin (Homo sapiens, UniProt P02768); assay: Serum albumin binding (ultrafiltration, ICP-MS); assay type: in vitro ADME; conditions: 20 μM complex, 40 g/L HSA, 37° C., ultrafiltrate
T1 construct: purchased Behring, Bern, Switzerland
Method: Serum albumin binding. Solutions containing 20 μM Gd-3.1., Gd-5.1. or Gd-6.1. and 40 g/L human serum albumin (Behring, Bern, Switzerland) were incubated at 37° C. for 30 or 90 min. The solutions were subjected to ultrafiltration (filter cutoff 20 kD; Sartorius, Göttingen, Germany), and the amount of unbound complex was determined in the ultrafiltrate with ICP-MS (n=2).
HSA Binding: 20 μM solutions of the complexes were incubated at 37° C. for 30 and 90 minutes in a solution of 40 g HSA/L (Behring, Bern; Switzerland). The amount of unbound complex was determined in ultrafiltrates with ICP-MS.

[7] = Biodistribution in BALB/c nu/nu mice carrying B16 melanoma; assay type: in vivo, mouse; conditions: 1 h post i.v. injection, perfused organs, B16 melanoma-bearing mice
Method: as §3, with “model.” for “models.”, “3×10^6 B16” for “2×10^6 MH3924A”, “BALB/c nu/nu mice” for “ACI rats”, “18” for “220”, “21” for “260”
Biodistribution data. At 10 days after tumor inoculation, when tumors had reached a diameter of ca. 7-8 mm, the biodistribution experiments were initiated. Each animal (18-21 g) was given an intravenous tail-vein injection of 975 μmol/kg Gadovist® (Schering, Berlin, Germany) or 1 μmol/kg of Gd-2.2. 1 h post-injection (p.i.), the animals were weighed, sacrificed by cervical dislocation, perfused and dissected. Organs or tissues were blotted dry and weighed. Samples containing the tumor or organs were digested with concentrated HNO3 (Superselect; Merck, Darmstadt, Germany) and H2O2 under microwave heating with a Mars 5 apparatus (CEM GmbH, Kamp-Lintfort, Germany). To each sample 100 μL of an aqueous solution of rhodium chloride (1 μg/mL) were added so that Rh-103 could be used as an internal quantification standard. […] The gadolinium concentrations were determined using standard curves created prior to tissue analyses. The results are expressed as nmol Gd/g tissue scaled on the dose of 100 μmol of the corresponding Gd complex.

T1 sequence (P02768 25-609): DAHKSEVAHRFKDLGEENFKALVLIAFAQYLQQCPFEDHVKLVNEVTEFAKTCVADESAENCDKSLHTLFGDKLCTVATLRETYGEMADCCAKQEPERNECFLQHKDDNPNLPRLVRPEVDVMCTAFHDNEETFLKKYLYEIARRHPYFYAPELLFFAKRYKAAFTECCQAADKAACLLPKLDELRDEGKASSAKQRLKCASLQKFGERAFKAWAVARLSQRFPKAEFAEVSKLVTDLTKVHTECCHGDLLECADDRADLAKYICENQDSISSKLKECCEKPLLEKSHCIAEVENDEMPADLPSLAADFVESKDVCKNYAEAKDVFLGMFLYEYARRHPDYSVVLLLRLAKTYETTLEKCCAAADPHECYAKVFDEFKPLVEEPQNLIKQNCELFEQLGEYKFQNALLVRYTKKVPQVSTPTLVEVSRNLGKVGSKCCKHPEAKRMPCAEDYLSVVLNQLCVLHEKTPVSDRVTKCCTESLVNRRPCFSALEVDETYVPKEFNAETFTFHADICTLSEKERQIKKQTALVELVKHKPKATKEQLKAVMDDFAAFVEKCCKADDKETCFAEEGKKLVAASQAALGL

| complex stability constant (Complex stability) | complex found to be free (unbound) (human serum albumin) [%] | Structure (SMILES) | intracellular uptake (below ICP-MS detection limit) [1] [fmol/cell] | contrast ratio tumor vs. muscle tissue, T1 weighting [2] | intracellular gadolinium content after 1 h incubation plus additional 24 h in complex-free medium [3] | intracellular uptake of gadolinium complex ([3]; 1 h incubation with 100 μM complex) [fmol/cell] | intracellular uptake of gadolinium complex [4] [fmol/cell] | intracellular uptake of gadolinium complex [5] [fmol/cell] | intracellular uptake of gadolinium complex [6] [fmol/cell] | intracellular uptake of gadolinium complex (B16 melanoma cells) [fmol/cell] | preferential tissue binding (biodistribution) [7] |
| --- | --- | --- | --- | --- | --- | --- | --- | --- | --- | --- | --- |
| – | – | O=C([O-])CN1CCN(CC(=O)[O-])CCN([C@H](CO)[C@H](O)CO)CCN(CC(=O)[O-])CC1.[Gd+3] (racemic) [Gadovist, gadobutrol, reference compound] | < 0.01 | ≤ 1.06 | – | – | – | – | – | – | – |
| about 3.45×10^21 | 92±5 | NCCN(CCN)C(=O)CN1CCN(CC(=O)[O-])CCN(CC(=O)[O-])CCN(CC(=O)[O-])CC1.[Gd+3] [Gd-2.2] | – | – | the same as for the 1 h incubation | 0.222 | 0.023 | 0.0078 | 0.0086 | 0.057 | binds preferentially to kidneys and skin tissue, but shows high tumor uptake as well |
